From patent publication US20210085798A1, “IMMUNITY LINKER MOLECULES AND THEIR USE IN THE TREATMENT OF INFECTIOUS DISEASES” (CENTAURI THERAPEUTICS LIMITED, priority 2018, published 2021)

What was measured:
E. coli K12 (NCTC 10538) = type: cell-based; conditions: 40 μM Polymyxin B, anti-Gal IgM M86 25 μg/mL, MFI (FITC) over vehicle control
Experimental: The assays were carried out in polystyrene 96-well U bottom plates (Costar). […] The samples were incubated for 1 hour at room temperature shaking at 450 rpm. […] Data from all samples were analysed using Kaluza software (Beckman Coulter).

[1] = system: P. aeruginosa (ATCC 27853); assay: Flow cytometric antibody recruitment assay using anti-Gal IgM antibody M86, P. aeruginosa; type: cell-based; conditions: anti-Gal IgM M86 40 μg/mL, MFI (FITC) over vehicle control
Experimental: Flow Cytometric Antibody Recruitment Assay Using an Anti-Galα1-3Galβ1-4GlcNAc (Anti-Gal) Antibody
A secondary fluorescently labelled anti-IgM antibody was used to detect the anti-Gal antibody binding.
The assays were carried out in polystyrene 96-well U bottom plates (Costar). Frozen stocks of P. aeruginosa (American Type Culture Collection, ATCC 27853) in mid-exponential phase were thawed, centrifuged and resuspended in LB broth, Miller (Fisher BP1426-500) at OD595=0.2. The bacteria were grown to mid-exponential phase (OD595=0.4), washed once with Hank's Balanced Salt Solution with calcium and magnesium (HBSS+/+) and then resuspended in HBSS+/+ at a bacterial OD595=0.6. […] After three final washes with 200 μL HBSS+/+, the bacteria were resuspended in 200 μL HBSS+/+ and evaluated for anti-Gal antibody binding on a Cytoflex flow cytometer (Beckman Coulter). 50,000 counts of bacterial particles were sampled and the median fluorescent shift was recorded in the FITC-A channel. Data from all samples were analysed using Kaluza software (Beckman Coulter). […] The fold shift over background was calculated by dividing the Median Fluorescent Intensity (MFI) obtained in the presence of 20 μM of the Example compounds by the MFI value obtained in the vehicle controls, i.e., the absence of Examples. […] The shift in fluorescence intensity (FITC) occurs due to the binding event at each end of the molecule.

Polymyxin B
IgM Recruitment (Average fold change) (E. coli K12 (NCTC 10538)): 4 fold change
IgM Recruitment (20 μM, Average fold change) [1]: 1 fold change
